Target: T1, zinc finger protein-like 1 (ZFPL1) (Homo sapiens, UniProt O95159)
T1 sequence (O95159 1-310): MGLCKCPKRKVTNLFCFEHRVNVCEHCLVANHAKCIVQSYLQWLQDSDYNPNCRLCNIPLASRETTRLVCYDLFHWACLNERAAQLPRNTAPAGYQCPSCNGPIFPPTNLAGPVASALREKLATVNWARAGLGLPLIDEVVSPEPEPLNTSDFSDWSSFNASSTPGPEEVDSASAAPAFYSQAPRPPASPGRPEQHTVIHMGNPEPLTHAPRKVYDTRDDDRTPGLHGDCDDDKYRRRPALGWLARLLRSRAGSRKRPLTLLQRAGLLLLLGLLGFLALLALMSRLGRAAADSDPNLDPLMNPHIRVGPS
Assay: microscale thermophoresis (MST) with fluorescently labelled ZFPL1
Assay type: binding

Kd: 8.52 µM
Compound: O=C(/C=C/c1ccc(O)c2c1[C@H](C(=O)O[C@H](Cc1ccc(O)c(O)c1)C(=O)O)[C@@H](c1ccc(O)c(O)c1)O2)O[C@H](Cc1ccc(O)c(O)c1)C(=O)O [Salvianolic acid B]
